Measured values taken from article PMC6054100, “Exploring the chemical space of the lysine-binding pocket of the first kringle domain of hepatocyte growth factor/scatter factor (HGF/SF) yields a new class of inhibitors of HGF/SF-MET binding” (Chemical Science, 2015).

Assays:
NK1 [1] = target: T1, NK1 (Homo sapiens, UniProt P14210); test: Binding of lysine analogues to NK1 (unpublished data); conditions: A. G. S.
NK1 [2] = target: T1, NK1; test: SPR steady-state binding to immobilized NK1 (Biacore T100); set-up: made in house; host or cells: Pichia pastoris; conditions: steady-state binding constants; piperazine-like compounds; immobilized NK1, PBS pH 7.4; read-out: KD in SPR
Method: Binding constants of piperazine-like compounds and fragments were determined using a Biacore T100 instrument. NK1 was immobilized on a CM5 chip by amine coupling to a density of 6000 RU. Compounds were stored as 100 mM stock solutions in water and serial dilutions were prepared in the running buffer (PBS pH 7.4, 0.05% Tween 20). The compound solutions were injected onto the surface of the chip at a flow rate of 30 μL min^–1, contact time was 1 min and dissociation time 1 min. Sensorgrams were analysed using the Biacore T100 evaluation software and the binding constants determined.

[3] = system: MET downstream signalling (Erk 1/2, Akt) in Vero cells; test: MET, Erk1/2 and Akt phosphorylation assay in NK1-stimulated Vero cells (Western blot); format: cell-based; conditions: Vero cells stimulated with NK1
Method: We evaluated the effect of piperazine-like compounds and MB605 on Vero cells by assessing MET, Erk 1/2 and Akt phosphorylation in response to stimulation using […] NK1. MB605 was dissolved in DMSO, which limited the range of concentrations tested to ≤1 mM in order to avoid solvent effects on cell function/viability. The water-soluble piperazine-like compounds, in contrast, could be tested at concentrations up to 100 mM.
Fig. 6 Biological activity of the piperazine-like compounds and MB605. (a–e) Vero cells expressing the receptor endogenously on their cell surface were stimulated with HGF/SF or NK1 and phosphorylation of MET and downstream targets Akt and Erk1/2 was analysed. Piperazine-like compounds HEPES (a), (H)EPPS (b), MES (c), MOPS (d) and CAPS (e) were tested at 100 mM (lanes 4), 10 mM (lanes 5), 1 mM (lanes 6) and 100 μM (lanes 7) concentration in the presence of 1 nM NK1. To control for activating or inhibiting effects of the compounds independently of MET, piperazine-like compounds were tested on cells at 100 mM without stimulation by NK1 (lanes 3). Biological activity of MB605 (f) was investigated at 1 mM (lane 5), 100 μM (lane 6) and 10 μM (lane 7) in the presence of a constant concentration of DMSO (0.1%). A solvent control (0.1% DMSO, lane 3) was included in order to account for the effect of DMSO on the cells. A positive control (1 nM NK1 in the presence of 0.1% DMSO) is shown in lane 4. In all experiments, un-stimulated cells served as negative control (lanes 1) while cells stimulated with 1 nM NK1 served as positive control (lanes 2).
The ability of MB605 and the piperazine-like compounds to inhibit MET, Erk and Akt phosphorylation in the presence of NK1 was tested using mammalian Vero cells as described by Ferraris et al.[47] and further details are given in the ESI ^† section of the manuscript. […]
For MET, Erk1/2 and Akt phosphorylation assays, Vero cells were seeded at 2.1 × 10^5 cells we ll -1 (2 ml we ll -1) in 6-well plates and grown to 90% conf luence in 10% FCS/DMEM media and then switched to serum-free medium (to avoid any growth f actors present in the serum).
24 hours post starvation the cells were stimulated for 5 min at 37°C with each individual piperazine -like compounds as well as with NK1 (1 nM) pre-incubated with different concentrations of the piperazine- like compounds (100 mM, 10 mM, 1 mM and 100 μM) or MB605 (1 mM, 100 μM and 10 μM). Stimulations with either 0. 1% DMS O or 1 nM of NK1 […]
solution were used as a negative and a positive control, respectively. The cells were then washed in PBS buffer, lysed on ice f or 30 min and frozen at -80 °C until further analysis. For

NK1 [4] = target: T1, NK1; test: 1H-15N TROSY-HSQC NMR chemical shift titration of 15N-labelled NK1; format: binding; set-up: made in house; host or cells: Pichia pastoris; conditions: steady-state binding constants; piperazine-like compounds; 0.18 mM NK1, pH 7.2, 310 K; read-out: KD in NMR
Method: Ligand screening was performed by monitoring the chemical shift variations in ^1H-^15N TROSY-HSQC NMR spectra of the uniformly [^15N]-labelled NK1 protein (Fragai et al. 2015, in prep.) upon the addition of increasing concentrations of the investigated compounds.[43]–[45] The experiments were performed using 0.18 mM protein samples in 25 mM Tris, 100 mM NaCl and 0.01% sodium azide, at pH 7.2 with 10% D2O. The spectra were recorded at 310 K on a Bruker AVANCE 900 MHz spectrometer equipped with a TXI cryo-probe. Sample solutions were prepared from 1 M or 100 mM DMSO stock solutions of the ligands. The dissociation constant values (KD) were calculated by plotting the weighted average ^1H and ^15N chemical shifts of the residues experiencing significant variations as a function of ligand concentration added during the titration and considering the one site binding model.[46]

[5] = target: T2, lysine-binding pocket of the kringle domain of NK1 (Homo sapiens, UniProt P14210); test: Soaking into NK1 apo crystals, X-ray crystallography; conditions: soaked into NK1 apo crystals
T2 construct: made in house; host or cells: Pichia pastoris
T2 sequence (P14210 32-210 isoform P14210-6 limits assumed): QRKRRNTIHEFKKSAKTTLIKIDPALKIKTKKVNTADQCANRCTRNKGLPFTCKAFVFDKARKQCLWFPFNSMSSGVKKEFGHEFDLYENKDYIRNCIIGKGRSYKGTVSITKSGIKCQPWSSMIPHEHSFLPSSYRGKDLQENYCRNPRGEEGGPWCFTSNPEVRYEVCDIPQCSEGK
Method: Next, three classes of piperazine-like sulphonated compounds containing piperazine ((H)EPPS and PIPES), morpholine (MES and MOPS), or cyclohexane (CHES and CAPS) rings were studied for their binding to NK1 (Table 1), alongside another five sulphonated compounds selected from a chemical fragment library (Table 2).
NK1 buffered in 150 mM NaCl, 50 mM Tris, pH 7.5 (apo-NK1 and all soaking experiments) was concentrated to ∼20 mg mL^–1 using a Vivaspin device with a 10 kDa cut-off membrane (Sartorius Biolab). Crystallisation was carried out in Linbro plates by the vapour diffusion hanging drop technique using a protein : precipitant ratio of 1 : 1 at 20 °C. Previously NK1 has been crystallised in 18% PEG 4000, 200 mM sodium acetate and 150 mM Tris pH 8.5 as precipitant.[19] Here final crystallisation conditions (19% PEG 4000, 200 mM sodium acetate and 150 mM Tris pH 7.5) were optimised around those to achieve high-resolution apo structure. Details of compound soaking, X-ray data collection and structure determination are given in the ESI ^† section of the manuscript. […]
For this, 1 M stock solutions were prepared in DMSO (fragments) or water (piperazine- like compounds) and the pH adjusted to a value within their buffering range with either HCl or NaOH. The seven piperazine- like compounds and their respective pH are: HEPES (pH 7.6), (H)EPPS (pH 7.4), PIPES (pH 7.0), MES (pH 5.8), MOPS (pH 7.2), CHES (pH 8.6) and CAPS (pH 9.7). Secondary stocks of the compounds at 50 mM were prepared in the […]
respective mother liquor and soaked for up to 48 hours.
MB605 was solubilised in 50% DMSO at 20 mM concentration (1% f inal DMSO concentration in the drop) in order to minimize adverse effects of DMSO on the protein crystal. 25% ethylene glycol was used as the cryoprotective agent.
X-ray data collection and processing
X-ray datasets were collected either at the European Synchrotron Radiation Facility (ESRF, Grenoble, France), the Diamond Light Source (DLS, Oxford, UK) or in-house using the X8 PROTEUM (Bruker AXS) at the Department of Biochemistry, University of Cambridge.
Datasets of at least 180° were collected. Raw data collected at synchrotrons were integrated, merged, scaled and reduced using DENZO and […].2 Raw data […]
collected in- house were integrated, merged, scaled and reduced using the PROTEUM 2 software package .3 The CCP4 suite of crystallographic programs (Collaborative

NK1-MET complexes = system: NK1-MET complexes; set-up: method as in Lauris Kemp, personal communication; conditions: buffers containing 50 mM HEPES; ref Lauris Kemp, personal communication; cited from earlier work

T1 sequence (P14210 32-210 isoform P14210-6 limits assumed): as above

binding to NK1 (NK1 [1]) | Kd (NK1 [2]) [mM] | Kd (NK1 [4]) [mM] | binding in the lysine-binding pocket (crystal structure) [5] | Structure (SMILES) | Inhibition of phosphorylation of Erk 1/2 and Akt (S473) ([3]; compound 10 mM (lane 5)) | Inhibition of phosphorylation of Erk 1/2 and Akt (S473) ([3]; compound 100 mM (lanes 4)) | formation of NK1-MET complexes (NK1-MET complexes)
neither EACA or AMCHA binds NK1 |  |  |  | NC[C@H]1CC[C@H](C(=O)O)CC1 [AMCHA, trans-4-(aminomethyl)cyclohexane-1-carboxylic acid] |  |  | 
 | 1.2 ± 0.2 | 1.4 ± 0.5 | bind the lysine-binding pocket of NK1 | O=S(=O)(O)CCCNC1CCCCC1 [CAPS] | active | Inhibition of phosphorylation | 
neither EACA or AMCHA binds NK1 |  |  |  | NCCCCCC(=O)O [EACA, ε-aminocaproic acid] |  |  | 

Continued, compound first:

Structure (SMILES) | binding to NK1 (NK1 [1]) | Kd (NK1 [2]) [mM] | Kd (NK1 [4]) [mM] | binding in the lysine-binding pocket (crystal structure) [5] | Inhibition of phosphorylation of Erk 1/2 and Akt (S473) ([3]; compound 10 mM (lane 5)) | Inhibition of phosphorylation of Erk 1/2 and Akt (S473) ([3]; compound 100 mM (lanes 4)) | formation of NK1-MET complexes (NK1-MET complexes)
O=S(=O)(O)CCN1CCN(CCO)CC1 [HEPES, 4-(2-hydroxyethyl)-1-piperazineethanesulfonic acid] |  | 2.4 ± 0.4 | 3.3 ± 0.4 | bound into the lysine-binding pocket |  | Inhibition of phosphorylation | inhibited
O=S(=O)(O)CCN1CCOCC1 [MES] |  | 24.3 ± 3.1 | 13.4 ± 5.7 | bind the lysine-binding pocket of NK1 |  | Inhibition of phosphorylation | 
O=S(=O)(O)CCCN1CCOCC1 [MOPS] |  | 7 ± 1 | 4.7 ± 1.7 | bind the lysine-binding pocket of NK1 |  | Inhibition of phosphorylation | 
